According to paper PMC6934184, “Selective DNA-PKcs inhibition extends the therapeutic index of localized radiotherapy and chemotherapy” (The Journal of Clinical Investigation, 2019):

Target: T1, FGFR1 (Homo sapiens, UniProt P11362)
T1 construct: purchased Thermo Fisher Scientific (Life Technologies) SelectScreen
Assay: SelectScreen Z'LYTE
Format: biochemical
Procedure, shortened: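 NU5455 was profiled across the SelectScreen Broad panel of kinase activity and binding assays. Z'LYTE reactions such as CSF1R ran at apparent Km ATP, while the Adapta CAMK1 assay used ATP listed as 10. Values are given as percent.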

T1 sequence (P11362 22-822): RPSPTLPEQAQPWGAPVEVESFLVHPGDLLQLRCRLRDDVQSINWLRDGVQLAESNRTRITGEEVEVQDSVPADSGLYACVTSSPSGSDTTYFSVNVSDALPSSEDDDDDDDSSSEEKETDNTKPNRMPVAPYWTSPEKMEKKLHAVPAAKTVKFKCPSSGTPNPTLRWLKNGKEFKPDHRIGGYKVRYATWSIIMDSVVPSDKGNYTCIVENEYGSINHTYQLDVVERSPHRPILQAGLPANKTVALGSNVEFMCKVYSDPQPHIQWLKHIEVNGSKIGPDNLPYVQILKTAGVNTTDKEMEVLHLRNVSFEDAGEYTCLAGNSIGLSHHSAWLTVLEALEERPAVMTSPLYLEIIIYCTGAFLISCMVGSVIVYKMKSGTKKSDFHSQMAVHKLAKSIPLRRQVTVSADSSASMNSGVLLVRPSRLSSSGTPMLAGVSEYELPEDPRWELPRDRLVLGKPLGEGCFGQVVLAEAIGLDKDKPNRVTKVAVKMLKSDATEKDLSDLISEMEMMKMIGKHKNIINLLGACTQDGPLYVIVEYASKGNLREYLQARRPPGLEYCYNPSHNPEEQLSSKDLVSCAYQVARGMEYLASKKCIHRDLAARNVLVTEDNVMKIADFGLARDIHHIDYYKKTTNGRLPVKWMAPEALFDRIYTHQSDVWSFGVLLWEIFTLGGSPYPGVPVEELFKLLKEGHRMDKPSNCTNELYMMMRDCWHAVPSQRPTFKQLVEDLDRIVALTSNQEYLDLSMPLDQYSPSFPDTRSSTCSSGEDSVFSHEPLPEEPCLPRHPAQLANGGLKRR

**Q.** Which inhibition at 1 µM does the source give for `CN(C(=O)CN1CCOCC1)c1ccc2sc3c(-c4cccc5c(=O)cc(N6CC7CCC(C6)O7)oc45)cccc3c2c1` [NU5455] here?
**A.** 4.7%
